Patent US20140039204A1, “7'-PHLOROECKOL COMPOUND FOR HAIR PROLIFERATION AND A COSMETIC COMPOSITION CONTAINING SAME” (PUKYONG NATIONAL UNIVERSITY INDUSTRY-UNIVERSITY COOPERATION …, priority 2011, published 2014)

Tests used:
[1] = system: ERK pathway (MEK ½, p-ERK, c-Fos) in HaCaT; assay: Western blot, ERK pathway in HaCaT; assay type: cell-based, human; conditions: 1 hour
Procedure: (§1) Western blot assay was performed as standard procedure to study the action mechanism on HFDPC and HaCaT proliferation mediated by 7′-phloroeckol. That is, cells were seeded with serum free medium in 6-well, then cultured for 24 hours (1.0×10^6 cells/well). Then, the cells were replaced with new medium and treated with the samples in the different concentrations for 1 hour to 24 hours. The cells were lysed in RIPA lysis buffer at 4° C. for 10 minutes. 10 μg cell lysate were divided by 10% SDS-polyacrylamide gel electrophoresis, transferred to polyvinylidenefluoride membrane filter and the membranes were blocked with 5% skim milk, hybridized with primary antibodies (1:10,000 dilution). Following the incubation with secondary horseradish peroxidase-conjugated antibodies at room temperature, immunoreactive protein was detected by using chemiluminescence ECL assay kit according to the manufacturer's instructions. Western blot band was visualized by using LAS3000® Luminescent image analyzer (Fujifilm Life Science, Tokyo, Japan).
(§2) Cells were treated with 7′-phloroeckol for 1 hour to 24 hours to examine the expression of protein by using western blot assay. Graph showing the result of western blot in HFDPC were illustrated in the FIGS. 3 to 6(a) and graphs showing the result of western blot in HaCaT were illustrated in the FIGS. 3 to 6(b). While HFDPC and HaCaT were treated with 7′-phloroeckol for 1 hour in the experiment on the pathway of ERK and AKT relating cell proliferation, HFDPC and HaCaT were treated with 7′-phloroeckol for 24 hours in the experiment on Bcl-2, Bax, p53, caspase-9 and caspase-3 relating apoptosis, then the protein expression were observed.
(§3) Data were expressed as a ratio of control group that doesn't contain the treated samples, the values are means±SEM, different letters written on the graph indicate a significant defference in Duncan's multiple range test (p<0.05).
(§4) HFDPC and HaCaT were treated with 7′-phloroeckol and cultured for 1 hour to study activation of 7′-phloroeckol on ERK pathway related to cell proliferation (FIG. 3).

[2] = system: AKT pathway (PI3K, p-AKT, whole AKT) in HFDPC; assay: Western blot, AKT pathway in HFDPC; assay type: cell-based, human; conditions: 1 hour
Procedure: as §1, §2, §3
After HFDPC and HaCaT were treated with 7′-phloroeckol and cultured for 1 hour to study the activation of 7′-phloroeckol on AKT pathway related cell proliferation (FIG. 4). […] But, there was no difference in whole AKT levels between treated with samples and without samples. Also, 0.5 μM 7′-phloroekol induced 1.75-fold and 1.65-fold levels of PI3K and pAKT in HaCaT.

[3] = system: Bcl-2, Bax, p53 in HFDPC; assay: Western blot, apoptosis-related factors in HFDPC; assay type: cell-based, human; conditions: 24 hours
Procedure: as §1, §2, §3
(§5) To study the apoptotic effect by 7′-phloroeckol, HFDPC and HaCaT were treated with 7′-phloroeckol, then cultured for 24 hours (FIG. 5).

[4] = system: Bcl-2, Bax, p53 in HaCaT; assay: Western blot, apoptosis-related factors in HaCaT; assay type: cell-based, human; conditions: 24 hours
Procedure: as §1, §2, §3, §5

[5] = system: AKT pathway (PI3K, pAKT) in HaCaT; assay: Western blot, AKT pathway in HaCaT; assay type: cell-based, human; conditions: 0.5 μM, 1 hour
Procedure: as §1
(§6) Cells were treated with 7′-phloroeckol for 1 hour to 24 hours to examine the expression of protein by using western blot assay. […]
(§7) Data were expressed as a ratio of control group that doesn't contain the treated samples, the values are means±SEM, different letters written on the graph indicate a significant defference in Duncan's multiple range test (p<0.05). […]

[6] = system: ERK pathway (MEK ½, p-ERK, total ERK, c-Fos) in HFDPC; assay: Western blot, ERK pathway in HFDPC; assay type: cell-based, human; conditions: 1 hour
Procedure: as §1, §2, §3, §4

[7] = system: Human Hair Follicle Dermal Papilla Cells (HFDPC); assay: MTT assay, cell proliferation of HFDPC; assay type: cell-based
Procedure: (§8) Human Hair Follicle Dermal Papilla Cells (HFDPC) were purchased from Promo Cell (Heidelberg, Germany). Cells were cultured in ready-to-use HFDPC medium, which is composed of Basal Medium, Fetal Calf Serum (FCS), Supplement Kit (Promo Cell, Heidelberg, Germany) including basic FGF and insulin. Kit including HEPES Buffer Saline Solution (HBSS), trypsin/EDTA solution and Trypsin Neutralizing Solution (Promo Cell, Heidelberg, Germany) was used for subculture. Subcultured 4th to 6th TFDPC was used for experiments. HaCaT (human epidermal keratinocyte) was cultured in Dulbecco's modified Eagle's medium (DMEM, Gibco BRL,
(§9) 3-[4,5-dimethylthiazol-2yl]-2,5 diphenyl tetrazolium bromide (MTT) Assay
(§10) Cell proliferation of HFDPC and HaCaT were measured by using MTT method. After cells were seeded in 96-well with serum-free medium, the cells were incubated for 1 day (1.0×10^4 cells/well). Then, we replaced with new medium and cells were treated with 0.01 μM, 0.05 μM, 0.1 μμM, 0.5 μM and 1 μM samples, then incubated for 5 days. MTT solution (5 mg/ml) was added, the cells were cultivated in 37° C. incubator for 3 hours. Then, the medium were removed and the formazan crystal were dissolved with Dimethyl sulfoxide (DMSO), then the absorbance of the solution were measured.
As described in the FIG. 1 and FIG. 2, data were expressed as the percentage on the control that doesn't contain the treated samples. […] Different letters as stated on the graph indicate a significant difference in Duncan's multiple range test (p<0.05).

[8] = system: caspase-3 and caspase-9 in HaCaT; assay: Western blot, caspase-3 and caspase-9 in HaCaT; assay type: cell-based, human; conditions: 24 hours
Procedure: as §1, §2, §7

[9] = system: caspase-3 and caspase-9 in HFDPC; assay: Western blot, caspase-3 and caspase-9 in HFDPC; assay type: cell-based, human; conditions: 0.5 μM, 24 hours
Procedure: as §1, §6, §7

[10] = system: HaCaT (human epidermal keratinocyte); assay: MTT assay, cell proliferation of HaCaT; assay type: cell-based; conditions: 5 days
Procedure: as §8, §9, §10
As described in the FIG. 1 and FIG. 2, data were expressed as the percentage on the control that doesn't contain the treated samples. […]

## Oc1cc(O)cc(Oc2c(O)cc(O)c3c2Oc2c(O)cc(Oc4c(O)cc(O)cc4O)cc2O3)c1 [7′-phloroeckol, 1-(3′,5′-dihydroxyphenoxy)-7-(2″,4″,6-trihydroxyphenoxy)-2,4,9-trihydroxydibenzo-1,4-dioxin]
[1]
  expression of MEK ½ protein: increased in dose-dependent manner
  expression of c-Fos protein: increased in dose-dependent manner
  expression of p-ERK protein: increased in dose-dependent manner
[2]; 0.05 μM
  PI3K levels versus control group: 1.76 fold
  expression of phospho AKT (p-AKT) protein versus control group: 1.53 fold
[2]; 0.5 μM
  PI3K levels versus control group: 3.07 fold
  expression of phospho AKT (p-AKT) protein versus control group: 2.40 fold
[2]
  whole AKT levels, treated versus untreated: no difference
[3]
  expression level of Bcl-2: decreased
  expression level of p53: decreased
  expression of proapoptotic molecule Bax: decreased the expression of proapoptotic molecule Bax
[3]; dose-dependent
  expression level of Bcl-2 protein: significantly increased
[4]; 0.05 μM
  expression of Bcl-2 protein versus control group: 2.60 fold
[4]; 0.5 μM
  expression of Bcl-2 protein versus control group: 4.21 fold
  level of Bax versus control: 0.67 fold
  level of p53 versus control: 0.72 fold
[5]
  level of PI3K: 1.75 fold
  level of pAKT: 1.65 fold
[6]; 0.05 μM
  expression of MEK ½ protein versus control group: 1.17 fold
  level of phospho-ERK (p-ERK) versus control group: 1.39 fold
[6]; 0.5 μM
  expression of MEK ½ protein versus control group: 1.65 fold
  level of phospho-ERK (p-ERK) versus control group: 1.71 fold
[6]; 0.05 and 0.5 μM
  expression of c-Fos protein: increased the expression of c-Fos protein
  total ERK levels, treated versus untreated: no significant difference
[7]; 0.01-1 μM, 5 days, percentage of control
  cell proliferation in HFDPC: increased the cell proliferation in dose-dependent manner
[7]; HFDPC, 1 μM, 5 days
  cell viability compared with 1 μM Minoxidil: significantly higher cell viability than 1 μM Minoxidil
[7]; HFDPC, 0.5 to 1 μM
  cell proliferation, 0.5 versus 1 μM: weren't significantly different
[8]; 0.05 μM
  expression of caspase-3 protein versus control group: 0.88 fold
[8]; 0.5 μM
  expression of caspase-3 protein versus control group: 0.68 fold
[8]
  expression of caspase-9: suppressing the expression
[9]
  expression of caspase-3 protein versus control group: 0.14 fold
  expression of caspase-9 protein versus control group: 0.13 fold
[10]; 0.01-1 μM, percentage of control
  cell proliferation in HaCaT: increased the cell proliferation in dose-dependent manner
[10]; HaCaT, 0.1 μM
  cell viability compared with 0.1 μM Minoxidil: higher cell viability than 0.1 μM Minoxidil
